Assay in all cases: KINOMEscan competition binding
What all share (conditions): compound 10.0 µM

The subject of assay [1] is PIK3CA (human), P42336 [E545A].
Assay [2] has as its system KIT (human), P10721 [D816V].
Assay [3] deals with EGFR (human), P00533 [P753S; 747-752 del].
In assay [4] the test system is EIF2AK4 KD2 (human), Q9P2K8 [S808G].
Assay [5] has as its system ABL1 (human), P00519 [M351T].
For assay [6], the system named is PIK3CA (human), P42336 [I800L].
In assay [7] the test system is PIK3CA (human), P42336 [C420R].
Assay [8] concerns KIT (human), P10721 [V559D].
The subject of assay [9] is PIK3CA (human), P42336 [H1047Y].
The test system of assay [10] is PIK3CA (human), P42336 [Q546K].
Assay [11] relates to PIK3CA (human), P42336 [E545K].
The test system of assay [12] is ABL1 (human), P00519 [E255K].
In assay [13] the test system is EGFR (human), P00533 [746-750 del].
The subject of assay [14] is EGFR (human), P00533 [L861Q].
Assay [15] concerns EGFR (human), P00533 [G719S].
In assay [16] the test system is FLT3 (human), P36888 [ITD].
Assay [17] deals with KIT (human), P10721 [V559D/T670I].
The subject of assay [18] is FLT3 (human), P36888 [K663Q].
For assay [19], the system named is FLT3 (human), P36888 [N841I].

Sequence of KIT (human), P10721 [V559D/T670I] (P10721 whole entry V559D/T670I, looked up): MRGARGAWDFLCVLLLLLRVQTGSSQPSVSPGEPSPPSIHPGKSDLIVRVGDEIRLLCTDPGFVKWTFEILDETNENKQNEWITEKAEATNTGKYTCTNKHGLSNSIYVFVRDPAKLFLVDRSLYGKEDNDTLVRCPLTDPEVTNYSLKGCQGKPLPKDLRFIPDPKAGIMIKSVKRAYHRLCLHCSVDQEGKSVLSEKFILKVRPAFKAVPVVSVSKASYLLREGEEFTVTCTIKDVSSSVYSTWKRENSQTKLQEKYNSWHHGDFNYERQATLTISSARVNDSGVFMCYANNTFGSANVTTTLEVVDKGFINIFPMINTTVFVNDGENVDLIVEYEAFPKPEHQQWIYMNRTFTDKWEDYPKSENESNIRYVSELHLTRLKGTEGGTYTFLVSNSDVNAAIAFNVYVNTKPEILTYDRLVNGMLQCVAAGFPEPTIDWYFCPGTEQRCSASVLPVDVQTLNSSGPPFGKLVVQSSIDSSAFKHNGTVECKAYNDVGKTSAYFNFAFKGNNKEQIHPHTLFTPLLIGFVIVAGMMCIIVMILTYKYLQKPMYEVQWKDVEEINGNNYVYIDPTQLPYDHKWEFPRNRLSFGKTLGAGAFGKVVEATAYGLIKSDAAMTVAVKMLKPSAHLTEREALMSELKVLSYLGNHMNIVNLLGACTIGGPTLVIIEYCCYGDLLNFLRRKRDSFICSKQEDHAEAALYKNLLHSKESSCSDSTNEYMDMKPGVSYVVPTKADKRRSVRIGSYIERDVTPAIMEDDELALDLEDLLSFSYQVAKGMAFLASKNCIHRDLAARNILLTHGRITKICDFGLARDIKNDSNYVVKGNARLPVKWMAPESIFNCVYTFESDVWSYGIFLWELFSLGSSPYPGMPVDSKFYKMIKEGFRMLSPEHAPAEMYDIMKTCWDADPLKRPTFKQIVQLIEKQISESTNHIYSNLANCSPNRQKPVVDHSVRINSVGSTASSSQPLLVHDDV
Sequence of PIK3CA (human), P42336 [Q546K] (P42336 whole entry Q546K, looked up): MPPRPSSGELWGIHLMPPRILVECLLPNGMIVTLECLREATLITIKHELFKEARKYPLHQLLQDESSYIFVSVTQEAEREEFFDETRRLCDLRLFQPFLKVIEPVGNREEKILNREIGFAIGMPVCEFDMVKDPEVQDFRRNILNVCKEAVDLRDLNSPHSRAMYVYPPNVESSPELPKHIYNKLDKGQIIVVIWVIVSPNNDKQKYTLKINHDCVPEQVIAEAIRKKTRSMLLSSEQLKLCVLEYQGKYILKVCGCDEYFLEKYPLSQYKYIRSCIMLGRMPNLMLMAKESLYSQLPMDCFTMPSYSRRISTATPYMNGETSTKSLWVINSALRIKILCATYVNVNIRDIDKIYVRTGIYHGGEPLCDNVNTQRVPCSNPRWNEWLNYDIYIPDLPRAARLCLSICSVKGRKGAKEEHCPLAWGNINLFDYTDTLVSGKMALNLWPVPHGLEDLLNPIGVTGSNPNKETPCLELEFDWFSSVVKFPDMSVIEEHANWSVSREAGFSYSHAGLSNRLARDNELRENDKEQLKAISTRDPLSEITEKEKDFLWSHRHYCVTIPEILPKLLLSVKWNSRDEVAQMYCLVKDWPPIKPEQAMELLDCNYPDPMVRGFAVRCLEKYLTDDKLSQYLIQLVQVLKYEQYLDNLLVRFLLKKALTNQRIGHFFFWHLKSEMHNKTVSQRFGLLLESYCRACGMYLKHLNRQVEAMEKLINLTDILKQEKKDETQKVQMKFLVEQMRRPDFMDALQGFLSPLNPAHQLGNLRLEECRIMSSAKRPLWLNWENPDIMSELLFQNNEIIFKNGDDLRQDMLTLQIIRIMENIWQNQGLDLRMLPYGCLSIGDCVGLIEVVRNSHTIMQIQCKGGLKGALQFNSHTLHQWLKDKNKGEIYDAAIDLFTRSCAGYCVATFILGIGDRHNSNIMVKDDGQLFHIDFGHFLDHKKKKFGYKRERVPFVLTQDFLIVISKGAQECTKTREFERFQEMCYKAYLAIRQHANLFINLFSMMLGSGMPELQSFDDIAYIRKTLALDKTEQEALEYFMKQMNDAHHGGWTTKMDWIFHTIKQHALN
Sequence of PIK3CA (human), P42336 [E545K] (P42336 whole entry E545K, looked up): as the sequence (P42336 whole entry Q546K, looked up) above, with E545K, K546Q counted along it
Sequence of PIK3CA (human), P42336 [H1047Y] (P42336 whole entry H1047Y, looked up): as the sequence (P42336 whole entry Q546K, looked up) above, with K546Q, H1047Y counted along it
Sequence of PIK3CA (human), P42336 [E545A] (P42336 whole entry E545A, looked up): as the sequence (P42336 whole entry Q546K, looked up) above, with E545A, K546Q counted along it
Sequence of EIF2AK4 KD2 (human), Q9P2K8 [S808G] (Q9P2K8 whole entry S808G, looked up): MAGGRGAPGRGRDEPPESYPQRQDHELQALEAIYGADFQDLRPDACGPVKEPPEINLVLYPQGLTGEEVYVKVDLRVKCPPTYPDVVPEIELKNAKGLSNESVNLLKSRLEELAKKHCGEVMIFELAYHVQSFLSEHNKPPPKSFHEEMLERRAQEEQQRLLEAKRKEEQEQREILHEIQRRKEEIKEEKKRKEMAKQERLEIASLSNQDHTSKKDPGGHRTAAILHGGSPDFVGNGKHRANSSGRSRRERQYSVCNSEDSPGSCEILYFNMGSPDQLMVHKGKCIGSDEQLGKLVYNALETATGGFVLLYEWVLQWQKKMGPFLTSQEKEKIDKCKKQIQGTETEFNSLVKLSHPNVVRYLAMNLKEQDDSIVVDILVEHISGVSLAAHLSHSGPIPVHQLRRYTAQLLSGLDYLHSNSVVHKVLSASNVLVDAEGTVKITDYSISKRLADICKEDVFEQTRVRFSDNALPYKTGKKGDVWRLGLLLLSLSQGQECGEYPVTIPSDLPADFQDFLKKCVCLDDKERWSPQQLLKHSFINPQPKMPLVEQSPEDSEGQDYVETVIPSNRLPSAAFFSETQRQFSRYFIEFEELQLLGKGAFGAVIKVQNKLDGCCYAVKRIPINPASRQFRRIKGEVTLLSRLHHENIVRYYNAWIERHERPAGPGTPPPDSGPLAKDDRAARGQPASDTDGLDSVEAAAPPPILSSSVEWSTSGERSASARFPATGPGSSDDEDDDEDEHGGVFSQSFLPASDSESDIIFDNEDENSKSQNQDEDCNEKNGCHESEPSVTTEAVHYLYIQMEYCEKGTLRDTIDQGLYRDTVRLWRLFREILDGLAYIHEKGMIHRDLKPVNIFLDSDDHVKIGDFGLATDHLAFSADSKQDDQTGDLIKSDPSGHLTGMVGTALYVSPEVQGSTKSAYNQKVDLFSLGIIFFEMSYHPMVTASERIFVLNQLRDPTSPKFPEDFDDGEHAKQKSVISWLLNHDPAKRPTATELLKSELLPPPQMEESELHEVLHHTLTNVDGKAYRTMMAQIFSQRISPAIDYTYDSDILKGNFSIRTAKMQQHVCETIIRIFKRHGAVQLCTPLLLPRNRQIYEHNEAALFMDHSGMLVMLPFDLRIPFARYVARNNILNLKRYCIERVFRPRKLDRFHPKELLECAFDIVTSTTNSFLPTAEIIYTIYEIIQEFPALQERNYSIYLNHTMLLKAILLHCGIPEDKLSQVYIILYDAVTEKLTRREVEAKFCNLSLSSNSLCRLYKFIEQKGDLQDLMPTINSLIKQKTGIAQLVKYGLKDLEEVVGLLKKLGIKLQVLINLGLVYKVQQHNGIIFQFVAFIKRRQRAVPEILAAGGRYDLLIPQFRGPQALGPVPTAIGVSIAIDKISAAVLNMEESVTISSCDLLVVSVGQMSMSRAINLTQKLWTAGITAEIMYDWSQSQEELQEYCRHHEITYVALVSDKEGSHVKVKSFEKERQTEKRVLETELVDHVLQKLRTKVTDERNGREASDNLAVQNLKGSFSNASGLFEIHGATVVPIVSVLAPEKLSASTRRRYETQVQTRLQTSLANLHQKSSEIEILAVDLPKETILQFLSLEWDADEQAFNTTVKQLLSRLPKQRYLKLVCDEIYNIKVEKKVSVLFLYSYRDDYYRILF
Sequence of PIK3CA (human), P42336 [C420R] (P42336 whole entry C420R, looked up): as the sequence (P42336 whole entry Q546K, looked up) above, with C420R, K546Q counted along it
Sequence of KIT (human), P10721 [V559D] (P10721 whole entry V559D, looked up): as the sequence (P10721 whole entry V559D/T670I, looked up) above, with I670T counted along it
Sequence of KIT (human), P10721 [D816V] (P10721 whole entry D816V, looked up): as the sequence (P10721 whole entry V559D/T670I, looked up) above, with D559V, I670T, D816V counted along it
Sequence of PIK3CA (human), P42336 [I800L] (P42336 whole entry I800L, looked up): as the sequence (P42336 whole entry Q546K, looked up) above, with K546Q, I800L counted along it

With `CCCS(=O)(=O)Nc1ccc(F)c(C(=O)c2c[nH]c3ncc(Cl)cc23)c1F`, the kinase still bound, per cent of control in assay [1] was found to be 92%; in assay [2] it was 49%; in [3] it was 85%; in assay [4], 0.95%; in assay [5], 46%; in [6], 91%. The kinase still bound, per cent of control in assay [7] was 100%; in assay [8] it was 0.05%; in [9], 90%; in assay [10], 86%; in [11] it was 100%; in assay [12] it was 46%. For the same compound, the kinase still bound, per cent of control in assay [13] turned out to be 93%; in [14], 34%; in assay [15] it was 72%; in assay [16], 68%; in assay [17], 46%; in [18] it was 17%. In addition, the kinase still bound, per cent of control in assay [19] stood at 28%.

Take `COc1cc2c(Nc3ccc(NC(=O)c4ccccc4)cc3)ncnc2cc1OCCCN1CCOCC1`: the kinase still bound, per cent of control in [1] amounted to 19%; in assay [2] it was 42%; in [3], 41%; in assay [4] it was 43%; in assay [5] it was 32%; in assay [6], 100%. The kinase still bound, per cent of control amounted to 68% in assay [7]; 0% in assay [8]; 24% in [9]; 17% in [10]; 98% in [11]; 45% in assay [12]. In addition, the kinase still bound, per cent of control in assay [13] was determined as 36%; in assay [14], 6.2%; in [15], 0.5%; in assay [16] it was 45%; in assay [17], 1.9%; in assay [18], 4%. Moreover, the kinase still bound, per cent of control in assay [19] was determined as 6%.

In the case of `CN(C)C/C=C/C(=O)Nc1ccc(C(=O)Nc2cccc(Nc3nccc(-c4cccnc4)n3)c2)cc1`, the kinase still bound, per cent of control in [1] was found to be 100%; in assay [2], 30%; in assay [3], 96%; in [4], 97%; in assay [5] it was 29%; in assay [6] it was 60%. For the same compound, the kinase still bound, per cent of control in [7] stood at 100%; in assay [8] it was 0.5%; in assay [9] it was 100%; in assay [10], 100%; in assay [11] it was 100%; in assay [12], 29%. The kinase still bound, per cent of control in [13] amounted to 100%; in [14], 56%; in assay [15] it was 97%; in [16], 30%; in assay [17] it was 10%; in assay [18], 34%. The same compound showed a kinase still bound, per cent of control in assay [19] of 31%.

With `CNC(=O)Nc1ccc(-c2nc(N3CC4CCC(C3)O4)c3cnn(C4CCC5(CC4)OCCO5)c3n2)cc1`, the kinase still bound, per cent of control in assay [1] was 8.8%; in [2], 82%; in [3], 62%; in [4], 83%; in assay [5] it was 100%; in assay [6] it was 5%. For the same compound, the kinase still bound, per cent of control turned out to be 11% in assay [7]; 85% in assay [8]; 9.6% in assay [9]; 11% in [10]; 11% in assay [11]; 100% in assay [12]. Besides, the kinase still bound, per cent of control in assay [13] was 38%; in assay [14], 64%; in [15], 69%; in [16], 100%; in assay [17] it was 100%; in assay [18], 69%. This compound also showed a kinase still bound, per cent of control in [19] of 89%.

As for `COc1cc2ncnc(Nc3cccc(Cl)c3)c2cc1OC`, the kinase still bound, per cent of control in [1] came to 98%; in [2], 38%; in assay [3], 1.4%; in assay [4] it was 56%; in assay [5], 1.4%; in assay [6], 46%. For the same compound, the kinase still bound, per cent of control stood at 60% in [7]; 16% in assay [8]; 95% in assay [9]; 82% in assay [10]; 71% in assay [11]; 6.6% in assay [12]. The kinase still bound, per cent of control came out at 3.3% in assay [13]; 0.1% in [14]; 0.9% in [15]; 24% in assay [16]; 49% in assay [17]; 35% in [18]. Besides, the kinase still bound, per cent of control in [19] amounted to 7.2%.

Take `O=C(Nc1cccc(Nc2ncc(Br)c(NCCc3cnc[nH]3)n2)c1)N1CCCC1`: the kinase still bound, per cent of control in assay [1] was 94%; in [2] it was 0.15%; in assay [3], 63%; in assay [4] it was 0.7%; in assay [5] it was 0.5%; in assay [6] it was 100%. In addition, the kinase still bound, per cent of control in assay [7] came out at 81%; in [8], 0.05%; in assay [9] it was 62%; in [10], 46%; in [11] it was 100%; in [12] it was 0.15%. Besides, the kinase still bound, per cent of control came to 62% in [13]; 75% in assay [14]; 51% in [15]; 0% in assay [16]; 2.3% in [17]; 0.1% in assay [18]. This compound also gave a kinase still bound, per cent of control in [19] of 0%.

Consider `COc1cc2ncnc(-n3nc(-c4ccccn4)nc3N)c2cc1OC`, for which the kinase still bound, per cent of control worked out at 18% in assay [1]; 0.15% in [2]; 68% in [3]; 1.6% in assay [4]; 1.2% in assay [5]; 2.8% in assay [6]. In addition, the kinase still bound, per cent of control was found to be 41% in assay [7]; 3.4% in [8]; 24% in assay [9]; 38% in assay [10]; 40% in assay [11]; 0.4% in assay [12]. In addition, the kinase still bound, per cent of control stood at 50% in assay [13]; 64% in assay [14]; 57% in assay [15]; 5.6% in assay [16]; 47% in assay [17]; 21% in assay [18]. This compound also had a kinase still bound, per cent of control in [19] of 0.4%.
